Test system: NHBE cells
Test: Biolog metabolic array: substrate use by NHBE cells with or without CA09 infection
Type: cell-based, human
Conditions: for Substrate use, 590 nm absorbance normalized to zero hour, 0 hr: Biolog PMM2, 0 hr; for Substrate use, 590 nm absorbance normalized to zero hour, 1 hr: Biolog PMM2, 1 hr; for Substrate use, 590 nm absorbance normalized to zero hour, 5 hr: Biolog PMM2, 5 hr; for Substrate use, 590 nm absorbance normalized to zero hour, 7 hr: Biolog PMM2, 7 hr
[1] = Control (uninfected) NHBE cells
[2] = Virus (CA09-infected, MOI 1) NHBE cells
[3] = Virus: CA09-infected NHBE cells, MOI 1, Biolog PMM2
[4] = Virus (CA09, MOI 1) infected NHBE cells

SMILES	590 nm absorbance normalized to zero hour (substrate use), 1 hr [1]	590 nm absorbance normalized to zero hour (substrate use), 2 hr [1]	590 nm absorbance normalized to zero hour (substrate use), 3 hr [1]	590 nm absorbance normalized to zero hour (substrate use), 4 hr [1]	590 nm absorbance normalized to zero hour (substrate use), 6 hr [1]	590 nm absorbance normalized to zero hour (substrate use), 8 hr [1]	590 nm absorbance normalized to zero hour (substrate use), 9 hr [1]	590 nm absorbance normalized to zero hour (substrate use), 10 hr [1]	590 nm absorbance normalized to zero hour (substrate use), 11 hr [1]	Substrate use, 590 nm absorbance normalized to zero hour, 1 hr [1]	Substrate use, 590 nm absorbance normalized to zero hour, 5 hr [1]	Substrate use, 590 nm absorbance normalized to zero hour, 7 hr [1]	590 nm absorbance normalized to zero hour (substrate use), 1 hr [2]	590 nm absorbance normalized to zero hour (substrate use), 2 hr [2]	590 nm absorbance normalized to zero hour (substrate use), 3 hr [2]	590 nm absorbance normalized to zero hour (substrate use), 4 hr [2]	590 nm absorbance normalized to zero hour (substrate use), 6 hr [2]	590 nm absorbance normalized to zero hour (substrate use), 8 hr [2]	590 nm absorbance normalized to zero hour (substrate use), 9 hr [2]	590 nm absorbance normalized to zero hour (substrate use), 10 hr [2]	also measured
OC[C@H]1O[C@@](CO)(O[C@H]2O[C@H](CO)[C@@H](O)[C@H](O)[C@H]2O)[C@@H](O[C@H]2O[C@H](CO)[C@@H](O)[C@H](O)[C@H]2O)[C@@H]1O [D-Melezitose]	1.47	1.93	2.23	2.39	3.85	3.55	3.84	4.31	3.97	1.47	2.80	3.32	1.67	2.39	2.73	2.88	3.57	3.98	4.49	4.69	590 nm absorbance normalized to zero hour (substrate use), 0 hr [1]: 1.00; Substrate use, 590 nm absorbance normalized to zero hour, 0 hr [1]: 1.00; 590 nm absorbance normalized to zero hour (substrate use), 0 hr [2]: 1.00; 590 nm absorbance normalized to zero hour (substrate use), 5 hr [2]: 3.35; 590 nm absorbance normalized to zero hour (substrate use), 7 hr [2]: 3.77; 590 nm absorbance normalized to zero hour (substrate use), 11 hr [2]: 5.01; 590 nm absorbance normalized to zero hour (substrate use), 0 hr [3]: 1.00; 590 nm absorbance normalized to zero hour (substrate use), 1 hr [3]: 1.67; 590 nm absorbance normalized to zero hour (substrate use), 2 hr [3]: 2.39; 590 nm absorbance normalized to zero hour (substrate use), 3 hr [3]: 2.73; 590 nm absorbance normalized to zero hour (substrate use), 4 hr [3]: 2.88; 590 nm absorbance normalized to zero hour (substrate use), 5 hr [3]: 3.35; 590 nm absorbance normalized to zero hour (substrate use), 6 hr [3]: 3.57; 590 nm absorbance normalized to zero hour (substrate use), 7 hr [3]: 3.77; 590 nm absorbance normalized to zero hour (substrate use), 8 hr [3]: 3.98; 590 nm absorbance normalized to zero hour (substrate use), 9 hr [3]: 4.49; 590 nm absorbance normalized to zero hour (substrate use), 10 hr [3]: 4.69; 590 nm absorbance normalized to zero hour (substrate use), 11 hr [3]: 5.01
OC[C@H]1O[C@H](OCC2O[C@@H](O)[C@H](O)[C@@H](O)[C@@H]2O)[C@H](O)[C@@H](O)[C@H]1O (stereo partly drawn) [D-Melibiose]	0.88	1.14	1.40	1.44	1.81	1.80	2.05	2.19	1.80	0.88	1.69	1.88	3.65	3.76	3.77	3.78	3.58	3.20	1.54	1.54	590 nm absorbance normalized to zero hour (substrate use), 0 hr [1]: 1.00; Substrate use, 590 nm absorbance normalized to zero hour, 0 hr [1]: 1.00; Substrate use, 590 nm absorbance normalized to zero hour, 0 hr [4]: 1.00; Substrate use, 590 nm absorbance normalized to zero hour, 1 hr [4]: 3.65; Substrate use, 590 nm absorbance normalized to zero hour, 5 hr [4]: 3.62; Substrate use, 590 nm absorbance normalized to zero hour, 7 hr [4]: 3.59; 590 nm absorbance normalized to zero hour (substrate use), 0 hr [2]: 1.00; 590 nm absorbance normalized to zero hour (substrate use), 11 hr [2]: 1.63
OC[C@H]1O[C@H](OC[C@H]2O[C@H](O[C@]3(CO)O[C@H](CO)[C@@H](O)[C@@H]3O)[C@H](O)[C@@H](O)[C@@H]2O)[C@H](O)[C@@H](O)[C@H]1O [D-Raffinose]	1.09	1.11	1.37	1.53	0.75	1.82	1.82	2.00	2.15	1.09	1.75	1.71	0.68	0.59	0.55	0.49	0.54	1.77	1.74	1.15	590 nm absorbance normalized to zero hour (substrate use), 0 hr [1]: 1.00; Substrate use, 590 nm absorbance normalized to zero hour, 0 hr [1]: 1.00; 590 nm absorbance normalized to zero hour (substrate use), 0 hr [2]: 1.00; 590 nm absorbance normalized to zero hour (substrate use), 5 hr [2]: 1.98; 590 nm absorbance normalized to zero hour (substrate use), 7 hr [2]: 1.92; 590 nm absorbance normalized to zero hour (substrate use), 11 hr [2]: 1.53; 590 nm absorbance normalized to zero hour (substrate use), 0 hr [3]: 1.00; 590 nm absorbance normalized to zero hour (substrate use), 1 hr [3]: 0.68; 590 nm absorbance normalized to zero hour (substrate use), 2 hr [3]: 0.59; 590 nm absorbance normalized to zero hour (substrate use), 3 hr [3]: 0.55; 590 nm absorbance normalized to zero hour (substrate use), 4 hr [3]: 0.49; 590 nm absorbance normalized to zero hour (substrate use), 5 hr [3]: 1.98; 590 nm absorbance normalized to zero hour (substrate use), 6 hr [3]: 0.54; 590 nm absorbance normalized to zero hour (substrate use), 7 hr [3]: 1.92; 590 nm absorbance normalized to zero hour (substrate use), 8 hr [3]: 1.77; 590 nm absorbance normalized to zero hour (substrate use), 9 hr [3]: 1.74; 590 nm absorbance normalized to zero hour (substrate use), 10 hr [3]: 1.15; 590 nm absorbance normalized to zero hour (substrate use), 11 hr [3]: 1.53
OC[C@@H](O)[C@@H](O)[C@H](O)[C@@H](O)CO [D-Sorbitol]	2.10	2.97	3.57	3.84	4.81	5.56	6.08	6.47	6.92	2.10	4.59	5.29	1.80	2.63	3.10	3.35	4.37	4.94	5.39	5.64	590 nm absorbance normalized to zero hour (substrate use), 5 hr [2]: 4.00; 590 nm absorbance normalized to zero hour (substrate use), 7 hr [2]: 4.63; 590 nm absorbance normalized to zero hour (substrate use), 11 hr [2]: 6.18; 590 nm absorbance normalized to zero hour (substrate use), 1 hr [3]: 1.80; 590 nm absorbance normalized to zero hour (substrate use), 2 hr [3]: 2.63; 590 nm absorbance normalized to zero hour (substrate use), 3 hr [3]: 3.10; 590 nm absorbance normalized to zero hour (substrate use), 4 hr [3]: 3.35; 590 nm absorbance normalized to zero hour (substrate use), 5 hr [3]: 4.00; 590 nm absorbance normalized to zero hour (substrate use), 6 hr [3]: 4.37; 590 nm absorbance normalized to zero hour (substrate use), 7 hr [3]: 4.63; 590 nm absorbance normalized to zero hour (substrate use), 8 hr [3]: 4.94; 590 nm absorbance normalized to zero hour (substrate use), 9 hr [3]: 5.39; 590 nm absorbance normalized to zero hour (substrate use), 10 hr [3]: 5.64; 590 nm absorbance normalized to zero hour (substrate use), 11 hr [3]: 6.18

— US11083725B2 (priority 2014, dated 2021)
